In publication PMC9448375 (Drug Delivery, 2022):

Columns and labels:
[1] = biological target: T1, pepsin (Sus scrofa, UniProt P00791); test: Stability against GI enzymes in simulated gastric fluid (SGF); assay type: in vitro ADME; conditions: SGF: pepsin 2,000 U/mL in pH 1.2 solution, mixed 1:1 with sample (INS 0.2 mg/mL), 37 °C, 100 rpm, HPLC, n = 3
T1 construct: purchased Sigma–Aldrich Chemical Co. (St. Louis, MO, USA)
Description: Simulated gastric fluid (SGF) was prepared by adding pepsin to pH 1.2 solution to a concentration of 2,000 U/mL. Simulated intestinal fluid (SIF) was prepared by adding trypsin (5,000 BAEE U/mL), chymotrypsin (20 IU/mL), lipase (400 IU/mL), and bile salt (10 mM) to the Tris buffer (50 mM, pH 8.0). […] Then, 250 µL of either SGF or SIF was added to the 250 µL of each formulation for enzymatic degradation. The mixture was transferred to a shaking incubator (SI-900R; JeioTech, Daejeon, Korea) and incubated at 37 °C under shaking (100 rpm). Finally, […] of cooled 0.1% TFA in methanol was added at predetermined time points (0, 5, 15, 30, 60, and 120 min) to quench the enzymatic reaction. For intestinal enzyme study, the reaction was continued for 240 min. Finally, the amount of INS remaining in the obtained samples was quantified by HPLC, as described earlier.

[2] = test system: streptozotocin-induced diabetic Sprague–Dawley rats; test: Pharmacodynamic study in diabetic rats (blood glucose level); assay type: in vivo, rat; conditions: for AAC0–8h (area above the blood glucose level curve, % of initial, 0–8 h) / BGLmin (minimum blood glucose level, % of initial levels) / Tmin (time to reach BGLmin): mean ± SD, n = 5–7
Description: To establish animal models of type 1 diabetes mellitus, male Sprague–Dawley rats were injected intraperitoneally with freshly prepared single doses of streptozotocin (60 mg/kg) dissolved in citrate buffer (0.1 M, pH 4.5). The successful induction of diabetes was corroborated by an increase in blood glucose levels after five days. Only the rats with fasting blood glucose levels higher than 250 mg/dL were considered diabetic.
All rats were fasted for 12 h before the experiment, with free access to water. […] Subsequently, blood samples were collected from the tail vein at different time intervals (0, 0.5, 1, 1.5, 2, 3, 4, 5, 6, and 8 h) and tested using a glucometer (GreenDoctor, GREENCROSS MEDIS Co., Chungnam, Korea). Based on the blood glucose level at 0 h (initial), each blood glucose level was converted to the relative level (% of initial). A value of 100% of the relative level was chosen as a reference point (upper limit) for the determination of the area above the blood glucose (% of initial)–time curve (AAC) values for decreased blood glucose levels.

[3] = test system: trypsin, chymotrypsin, lipase, bile salt; test: Stability against GI enzymes in simulated intestinal fluid (SIF); assay type: in vitro ADME; conditions: SIF: trypsin 5,000 BAEE U/mL, chymotrypsin 20 IU/mL, lipase 400 IU/mL, bile salt 10 mM, Tris 50 mM pH 8.0; mixed 1:1 with sample (INS 0.2 mg/mL); 37 °C, 100 rpm; 0–240 min; HPLC; first-order fit; n = 3
Description: Simulated intestinal fluid (SIF) was prepared by adding trypsin (5,000 BAEE U/mL), chymotrypsin (20 IU/mL), lipase (400 IU/mL), and bile salt (10 mM) to the Tris buffer (50 mM, pH 8.0). […] Then, 250 µL of either SGF or SIF was added to the 250 µL of each formulation for enzymatic degradation. The mixture was transferred to a shaking incubator (SI-900R; JeioTech, Daejeon, Korea) and incubated at 37 °C under shaking (100 rpm). Finally, 500 mL of cooled 0.1% TFA in methanol was added at predetermined time points (0, 5, 15, 30, 60, and 120 min) to quench the enzymatic reaction. For intestinal enzyme study, the reaction was continued for 240 min.

[4] = log P by shake-flask method; assay type: physicochemical; conditions: shake-flask n-octanol/distilled water, mutually pre-saturated; 25 °C, 24 h, 50 rpm; HPLC of INS in both phases; HIP complexes at INS:counterion 1:6; mean, n = 3
Description: The log P values of different HIP complexes were determined by the shake-flask method (Zhang et al., [2021]). Prior to the experiment, distilled water and n-octanol were poured into a separatory funnel, vigorously shaken, and then allowed to settle for 24 h to mutually saturate. Stock solutions of HIP complexes in the saturated n-octanol were prepared and mixed with pre-saturated distilled water at a 1:10 (vol/vol) ratio. INS was dissolved in saturated distilled water and then mixed with pre-saturated n-octanol. The tube was incubated at 25 °C for 24 h with continuous shaking (50 rpm) and allowed to separate for 1 h, after which it was centrifuged at 16,000g for 10 min. Afterward, samples from both phases were carefully analyzed by HPLC.

T1 sequence (P00791 60-385): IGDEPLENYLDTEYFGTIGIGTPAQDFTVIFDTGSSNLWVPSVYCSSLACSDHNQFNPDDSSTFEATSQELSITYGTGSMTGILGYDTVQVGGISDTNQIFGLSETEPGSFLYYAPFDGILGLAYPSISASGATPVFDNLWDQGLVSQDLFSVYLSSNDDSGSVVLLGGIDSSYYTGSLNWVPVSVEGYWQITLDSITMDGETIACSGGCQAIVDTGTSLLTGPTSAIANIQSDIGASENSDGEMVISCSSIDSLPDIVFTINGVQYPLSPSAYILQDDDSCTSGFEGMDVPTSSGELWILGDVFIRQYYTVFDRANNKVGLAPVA

Insulin
Rate constant of INS degradation, simulated gastric fluid ([1]; 0–120 min, first-order fit): 0.1854 min⁻¹ | Half-life of INS, simulated gastric fluid [1]: 3.74 min | AAC0–8h (area above the blood glucose level curve, % of initial, 0–8 h) ([2]; SC injection, 5 IU/kg): 439.29 ± 30.00 %·h | BGLmin (minimum blood glucose level, % of initial levels) ([2]; SC injection, 5 IU/kg): 22.78 ± 1.92% | Tmin (time to reach BGLmin) ([2]; SC injection, 5 IU/kg): 3.20 ± 0.84 h | AAC0–8h (area above the blood glucose level curve, % of initial, 0–8 h) ([2]; oral gavage, 50 IU/kg): –44.47 ± 38.33 %·h | BGLmin (minimum blood glucose level, % of initial levels) ([2]; oral gavage, 50 IU/kg): 97.92 ± 1.23% | Tmin (time to reach BGLmin) ([2]; oral gavage, 50 IU/kg): 2.75 ± 0.25 h | antidiabetic effects (blood glucose level versus time) ([2]; oral, 50 IU/kg): negligible | Rate constant of INS degradation, simulated intestinal fluid [3]: 0.1980 min⁻¹ | log P [4]: –1.61
